In ChEMBL document CHEMBL1139632, “Design and synthesis of new 2-substituted-5-(2-benzylthiophenyl)-1,3,4-oxadiazoles as benzodiazepine receptor agonists” (Bioorg Med Chem Lett, 2005):

Assays:
[1] = tested on: Mus musculus; experiment: Ability of the compound to protect mice against maximal electric shock (MES) induced convulsion in the presence of 10 mg/kg flumazenil; Range 54.9-102.9; format: functional
[2] = organism: Mus musculus; experiment: Lethal dose of in mice; format: functional
[3] = tested on: Mus musculus; experiment: Ability of the compound to protect mice against pentylenetetrazole induced convulsion in the presence of 10 mg/kg flumazenil; Ranges 60.1-135.9; format: functional
[4] = Lethal dose in mice; format: toxicity; conditions: mouse, in vivo

SMILES | ED50 [1] [mg/kg] | LD50 [2] [mg/kg] | ED50 [3] [mg/kg] | LD50 [4] [mg/kg]
Nc1nnc(-c2ccccc2SCc2ccc(Cl)cc2)o1 | > 100 | > 300 | > 100 | –
Nc1nnc(-c2ccccc2SCc2ccccc2)o1 | 43.3 | – | 89.2 | > 300
Nc1nnc(-c2ccccc2SCc2ccc(F)cc2)o1 | > 100 | > 300 | 29.1 | –
Sc1nnc(-c2ccccc2SCc2ccccc2)o1 | > 100 | > 300 | > 100 | –
c1ccc(CSc2nnc(-c3ccccc3SCc3ccccc3)o2)cc1 | > 100 | > 300 | > 100 | –
CSc1nnc(-c2ccccc2SCc2ccccc2)o1 | > 100 | > 300 | 93.2 | –
CN1C(=O)CN=C(c2ccccc2)c2cc(Cl)ccc21 [DIAZEPAM] | 1.8 | – | 1.4 | –
CCSc1nnc(-c2ccccc2SCc2ccccc2)o1 | > 100 | > 300 | > 100 | –
